Source: PMC4859512, “Polyamino-Isoprenic Derivatives Block Intrinsic Resistance of P. aeruginosa to Doxycycline and Chloramphenicol In Vitro” (PLoS ONE, 2016)
pIC50: −log10 of the molar value. Where “and” joins values, the source holds several entries; their conditions need not be identical. Equal values may be shown once.

Columns and labels:
[1] = test system: P. aeruginosa PA01 ERY^R (Mex CD overproducer); experiment: microbe, parasite or virus in culture; format: cell-based, Pseudomonas aeruginosa
[2] = test system: P. aeruginosa FB1 (Mex B deleted); experiment: Antibiotic susceptibility testing (broth micro-dilution MIC), strain FB1; format: cell-based; conditions: Pseudomonas aeruginosa, read-out: Minimal Inhibitory Concentration
Procedure: Experiments were performed on the BAC-SCREEN platform of the UMR-MD1, with a Freedom EVO 150 liquid handling system (Tecan, Lyon, France).

P. aeruginosa PA01 = experiment: Checkerboard assay with doxycycline; format: cell-based, Pseudomonas aeruginosa; conditions: PA01
Procedure: Serial two-fold dilutions of antimicrobial agents were mixed together in a microtiter plate. The range of concentration of each drug was twice the MIC, down to the eleventh serial two-fold dilutions below this amount. Doxycycline was serially diluted along the X-axis, and the polyamino-isoprenic compound or PAßN was diluted along the Y-axis as indicated. Each well was inoculated with a bacterial inoculum of 5 x 10^5 CFU/ml, and the plates were incubated at 37°C for 18 h under aerobic conditions. Each plate also contained a row and a column in which a serial dilution of polyamino-isoprenic compound or doxycycline, respectively, was present alone to determine the MIC. The FIC index was calculated as follows: FIC index = FIC A + FIC B, where FIC A is the MIC of drug A in the combination/MIC of drug A alone and FIC B is the MIC of drug B in the combination/MIC of drug B alone. The combination was considered synergistic when the FIC index is ≤0.5, and antagonistic when the FIC index is > 4 [26].

P. aeruginosa strains = experiment: Synergy assays of compound 3 with representative anti-pseudomonal agents (summary in words, all strains); format: cell-based, Pseudomonas aeruginosa
Procedure: We concluded that compound 3 was the best compound and suitable for a more detailed study. The same experiment was performed using chloramphenicol (4 mg/L) in combination with 3 (10 μM final concentration). Amongst the 20 clinical isolates, the growth of 15 (75%) was impaired, while 5 (25%) were resistant (data not shown). These experiments were performed to study the effect of our compounds on the natural resistance of P. aeruginosa. In addition, we were wondering if compound 3 could also increase susceptibility to other antibiotic families including ß-Lactams, fluoroquinolones and aminoglycosides, that are representative of the main classes of anti-pseudomonal agents. Experiments were performed with the ß-lactams ceftazidime and ticarcillin and ciprofloxacin and amikacin. […]. […] To better characterize compound 3, we first searched for the minimum concentration of compound that allowed killing of bacteria by doxycycline, and PAßN was used as the reference molecule.

[3] = test system: efflux of 1,2'-dinaphthylamine in strain PA01; experiment: Real-time efflux assay (1,2'-dinaphthylamine, glucose-triggered); format: cell-based, Pseudomonas aeruginosa
Procedure: The experiments were performed as previously described with slight modifications. For each strain, 20 mL of MHII was inoculated with a single colony from a fresh plate and grown at 37°C to the stationary phase. […] They were then loaded over night with the dye 1,2’-dinaphthylamine (TCI-Europe SA, Zwijndrecht, Belgium) at a final concentration of 32 μM, in the presence of 5 μM CCCP. […] In a 96-well Greiner black microplate (Greiner, Courtaboeuf, France), a gradient of inhibitor (when used) was prepared in PPB, and bacteria were added (100 μL per well). The fluorescence of the cell suspension, was monitored each 22 sec during 1200 sec on an Infinite M200 microplate reader (Tecan; excitation wavelength 370 nm and emission wavelength 420 nm). In order to trigger the transport, glucose (50 mM final concentration) is added at 200 sec. The maximum efficacy of the efflux is the difference between the value obtained without and with glucose addition after 1200 sec. For each compound, the efficiency of efflux inhibition is calculated as the difference between the maximum efficacy of transport and the residual transport obtained at various concentrations of the compound.

[4] = test system: cytoplasmic membrane of PA01; experiment: Inner membrane depolarization assay (Disc3(5) fluorescence); format: cell-based, Pseudomonas aeruginosa; conditions: PA01, Disc3(5) fluorescence
Procedure: Inner membrane depolarization assay
Cells were grown to a mid-
logarithmic phase, recovered by centrifugation (3000 X g for 20 min) and washed in 5 mM 4-(2-
hydroxyethyl)piperazine-1-ethanesulfonic acid (HEPES, pH 7.0) containing 10 mM EDTA. After 5
min incubation at room temperature, cells were recovered by centrifugation (3000 X g for 20
min), and resuspended in 5 mM HEPES (pH 7.0) containing 50 mM glucose, OD600 nm was
adjusted to 0.29. Five µl of a 160 µM suspension of [3,3’-Dipropylthiadicarbocyanine iodide]
(Disc3(5)) were added after 90 sec to 100 µl of a bacterial suspension, in a 96-well Greiner black
microplate, to reach 8 µM final concentration. After a 16.5 min incubation period allowing
incorporation of the dye into the polarized membrane, 10 µl of the appropriate compound
concentration were added. Fluorescence was monitored every 30 sec on an Infinite M200
microplate reader (Tecan; excitation wavelength 622nm and emission wavelength 690nm).
Assays were performed in two independent experiments and statistically significance was
assessed using a student’s t-test. A p-value ≤ 0.05 was considered significant.
(1 picture or pasted object on this page, not shown here)

[5] = test system: P. aeruginosa PA01 reference strain; experiment: High-content screening in the presence of doxycycline; conditions: compound 10 μM, doxycycline 4 mg/L
Procedure: The screening was carried out in 96-well microtiter plates using MHBII, in a final volume of 200 μL. […] The bacterial inoculum of 5×10^5 CFU/mL was prepared from an overnight culture. In addition to the polyamino-isoprenic compounds, each plate contained PAßN, CCCP, CTAB, polymyxin-B and benzalkonium chloride as control molecules. Plates were incubated at 37°C under aerobic conditions for 18 hours. Plates were read at 600 nm on an Infinite M200 Pro plate reader (Tecan).
A series of 60 compounds, which were described [18], were tested at a concentration of 10 μM in combination with a sub-inhibitory concentration of doxycycline against the reference strain of P. aeruginosa PA01. In parallel, we evaluated the intrinsic antimicrobial activity of these compounds alone to allow the selection of only doxycycline adjuvants.

[6] = doxycycline MIC in the combination 0.0625 µg/ml
[7] = doxycycline MIC in the combination 0.125 µg/ml
[8] = doxycycline MIC in the combination 0.25 µg/ml
[9] = doxycycline MIC in the combination 0.5 µg/ml
[10] = doxycycline MIC in the combination 1 µg/ml
[11] = doxycycline MIC in the combination 2 µg/ml
[12] = doxycycline MIC in the combination 4 µg/ml
[13] = doxycycline MIC in the combination 8 µg/ml
[14] = doxycycline MIC in the combination 16 µg/ml

## CC(C)=CCCC(C)=CCCC(C)=CCNCCCNCCCCNCCCN [Compound 3]
[1]; PA01 ERY R, compound 10µM
  MIC of Amikacin in the presence of the compound: 32 µg/mL
  MIC of Ceftazidime in the presence of the compound: 2 µg/mL
  MIC of Ciprofloxacin in the presence of the compound: 0.125 µg/mL
  MIC of Ticarcillin in the presence of the compound: 16 µg/mL
[1]; Pseudomonas aeruginosa, read-out: Minimal Inhibitory Concentration
  MIC: 25 µg/mL and 62.5 µM
[2]
  MIC: 25 µg/mL and 62.5 µM
P. aeruginosa PA01; [6]
  Concentration of compound associated: 93.75 µM
  FIC index: 1
P. aeruginosa PA01; [7]
  Concentration of compound associated: 46.88 µM
  Effect: Synergistic (synergistic when the FIC index is ≤0.5)
  FIC index: 0.50
P. aeruginosa PA01; [8]
  Concentration of compound associated: 23.44 µM
  Effect: Synergistic (synergistic when the FIC index is ≤0.5)
  FIC index: 0.26
P. aeruginosa PA01; [9]
  Concentration of compound associated: 11.72 µM
  Effect: Synergistic (synergistic when the FIC index is ≤0.5)
  FIC index: 0.14
P. aeruginosa PA01; [10]
  Concentration of compound associated: 5.86 µM
  Effect: Synergistic (synergistic when the FIC index is ≤0.5)
  FIC index: 0.09
P. aeruginosa PA01; [11]
  Concentration of compound associated: 2.93 µM
  Effect: Synergistic (synergistic when the FIC index is ≤0.5)
  FIC index: 0.09
P. aeruginosa PA01; [12]
  Concentration of compound associated: 2.93 µM
  Effect: Synergistic (synergistic when the FIC index is ≤0.5)
  FIC index: 0.16
P. aeruginosa PA01; [13]
  Concentration of compound associated: 0.73 µM
  Effect: Synergistic (synergistic when the FIC index is ≤0.5)
  FIC index: 0.26
P. aeruginosa PA01; [14]
  Concentration of compound associated: 0.18 µM
  Effect: Synergistic (synergistic when the FIC index is ≤0.5)
  FIC index: 0.50
P. aeruginosa PA01; combination with doxycycline
  FIC index: 0.09
P. aeruginosa strains; all strains with the exception of PA0-7H
  synergy with ciprofloxacin: No synergistic effect
P. aeruginosa strains; all the strains
  effect of combination with ticarcillin: slight effect
P. aeruginosa strains; every strains
  effect on the MIC of amikacin: surprising increase of the MIC
[3]
  rank of efflux inhibition among compounds 1-4 and PAßN: the most efficient
[3]; Pseudomonas aeruginosa, 2.5x10^8 cfu/mL, read-out: concentration needed to inhibit 50% of 1,2'DNA efflux
  pIC50: 4.51
[3]; Pseudomonas aeruginosa, compound at 31.25μM
  inhibition at 31.25 µM: 60%
[3]; compound at 15.6μM
  efflux inhibition: fifty percent efflux inhibition
[3]; compound at 125μM
  efflux inhibition: completely abolished the transportation of dye
[4]
  cytoplasmic membrane depolarization: dissipated the proton motive force
[5]
  bacterial growth in combination with doxycycline: completely abolished bacterial growth
